Consider 22 compounds from ChEMBL document CHEMBL4190164 (Medchemcomm, 2016).

pIC50, pKi: −log10 of the molar value.

Assay [1] has as its target Insulin-like growth factor 1 receptor (Homo sapiens, UniProt P08069). Briefly: Inhibition of recombinant human GST-tagged IGF1R expressed in baculovirus infected Sf9 insect cells using poly (Glu,Tyr) 4:1 as substrate after 60 mins in presence of [gamma33P]ATP by scintillation counting method.
For assay [2], the target named is Epidermal growth factor receptor (Homo sapiens, UniProt P00533). Briefly: Inhibition of recombinant human GST-tagged wild-type EGFR expressed in baculovirus infected Sf9 insect cells using poly (Glu,Tyr) 4:1 as substrate after 60 mins in presence of [gamma33P]ATP by scintillation counting method.
For the next assay, the system named is Hs-578T. Briefly: Growth inhibition of human Hs 578T cells at 10 uM after 48 hrs by sulforhodamine B assay relative to control. Type of assay: functional. Particulars: read-out: GI. (In general: Sulforhodamine B stains cellular protein and so reports cell mass.)
The test system of the next assay is NCI-H460. Briefly: Growth inhibition of human NCI-H460 cells at 10 uM after 48 hrs by sulforhodamine B assay relative to control. The following applies: NCI-H460, 48 h, read-out: GI. Type of assay: functional.
The subject of the next assay is HOP-62. Briefly: Growth inhibition of human HOP62 cells at 10 uM after 48 hrs by sulforhodamine B assay relative to control. The format is functional. Particulars: HOP-62, 48 h, read-out: GI.
The subject of the next assay is BT-549. Briefly: Growth inhibition of human BT549 cells at 10 uM after 48 hrs by sulforhodamine B assay relative to control. The format is functional. Particulars: BT-549, 48 h, read-out: GI.

Chain of Insulin-like growth factor 1 receptor (P08069 31-736 limits assumed): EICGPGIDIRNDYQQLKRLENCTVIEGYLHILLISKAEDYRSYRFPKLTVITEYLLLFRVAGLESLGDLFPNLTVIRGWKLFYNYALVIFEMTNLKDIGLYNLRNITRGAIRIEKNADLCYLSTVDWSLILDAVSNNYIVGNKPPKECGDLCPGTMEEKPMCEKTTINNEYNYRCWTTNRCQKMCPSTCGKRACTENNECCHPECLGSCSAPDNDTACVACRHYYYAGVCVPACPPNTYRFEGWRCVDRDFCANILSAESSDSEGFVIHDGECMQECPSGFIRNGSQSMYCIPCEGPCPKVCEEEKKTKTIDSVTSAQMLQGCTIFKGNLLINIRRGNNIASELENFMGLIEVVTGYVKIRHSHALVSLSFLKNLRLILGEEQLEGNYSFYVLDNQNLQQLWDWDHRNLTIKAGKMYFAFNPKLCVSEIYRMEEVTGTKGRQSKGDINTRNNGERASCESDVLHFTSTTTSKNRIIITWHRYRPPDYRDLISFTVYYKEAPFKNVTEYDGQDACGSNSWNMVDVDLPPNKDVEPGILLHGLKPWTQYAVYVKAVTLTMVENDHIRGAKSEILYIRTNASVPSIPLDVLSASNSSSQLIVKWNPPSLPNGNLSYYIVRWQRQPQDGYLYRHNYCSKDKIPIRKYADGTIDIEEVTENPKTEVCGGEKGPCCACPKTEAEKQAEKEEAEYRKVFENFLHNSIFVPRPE
Chain of Insulin-like growth factor 1 receptor (P08069 741-1367 limits assumed): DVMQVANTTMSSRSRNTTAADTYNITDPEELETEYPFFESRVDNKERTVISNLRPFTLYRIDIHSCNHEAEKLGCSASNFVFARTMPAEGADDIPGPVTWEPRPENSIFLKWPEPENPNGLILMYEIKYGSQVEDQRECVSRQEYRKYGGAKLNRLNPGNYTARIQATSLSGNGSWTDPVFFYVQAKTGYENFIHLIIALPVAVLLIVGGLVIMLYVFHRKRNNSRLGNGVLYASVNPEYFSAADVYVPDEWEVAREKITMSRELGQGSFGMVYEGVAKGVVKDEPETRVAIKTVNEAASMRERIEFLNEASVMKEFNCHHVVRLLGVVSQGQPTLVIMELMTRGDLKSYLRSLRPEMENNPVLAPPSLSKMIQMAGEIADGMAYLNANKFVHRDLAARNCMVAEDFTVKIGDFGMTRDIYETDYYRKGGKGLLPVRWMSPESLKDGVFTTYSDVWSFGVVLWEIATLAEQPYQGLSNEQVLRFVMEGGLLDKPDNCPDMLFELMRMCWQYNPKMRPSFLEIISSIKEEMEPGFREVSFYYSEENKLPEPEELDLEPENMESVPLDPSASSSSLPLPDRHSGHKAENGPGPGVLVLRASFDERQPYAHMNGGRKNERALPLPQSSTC
Chain of Epidermal growth factor receptor (P00533 whole entry): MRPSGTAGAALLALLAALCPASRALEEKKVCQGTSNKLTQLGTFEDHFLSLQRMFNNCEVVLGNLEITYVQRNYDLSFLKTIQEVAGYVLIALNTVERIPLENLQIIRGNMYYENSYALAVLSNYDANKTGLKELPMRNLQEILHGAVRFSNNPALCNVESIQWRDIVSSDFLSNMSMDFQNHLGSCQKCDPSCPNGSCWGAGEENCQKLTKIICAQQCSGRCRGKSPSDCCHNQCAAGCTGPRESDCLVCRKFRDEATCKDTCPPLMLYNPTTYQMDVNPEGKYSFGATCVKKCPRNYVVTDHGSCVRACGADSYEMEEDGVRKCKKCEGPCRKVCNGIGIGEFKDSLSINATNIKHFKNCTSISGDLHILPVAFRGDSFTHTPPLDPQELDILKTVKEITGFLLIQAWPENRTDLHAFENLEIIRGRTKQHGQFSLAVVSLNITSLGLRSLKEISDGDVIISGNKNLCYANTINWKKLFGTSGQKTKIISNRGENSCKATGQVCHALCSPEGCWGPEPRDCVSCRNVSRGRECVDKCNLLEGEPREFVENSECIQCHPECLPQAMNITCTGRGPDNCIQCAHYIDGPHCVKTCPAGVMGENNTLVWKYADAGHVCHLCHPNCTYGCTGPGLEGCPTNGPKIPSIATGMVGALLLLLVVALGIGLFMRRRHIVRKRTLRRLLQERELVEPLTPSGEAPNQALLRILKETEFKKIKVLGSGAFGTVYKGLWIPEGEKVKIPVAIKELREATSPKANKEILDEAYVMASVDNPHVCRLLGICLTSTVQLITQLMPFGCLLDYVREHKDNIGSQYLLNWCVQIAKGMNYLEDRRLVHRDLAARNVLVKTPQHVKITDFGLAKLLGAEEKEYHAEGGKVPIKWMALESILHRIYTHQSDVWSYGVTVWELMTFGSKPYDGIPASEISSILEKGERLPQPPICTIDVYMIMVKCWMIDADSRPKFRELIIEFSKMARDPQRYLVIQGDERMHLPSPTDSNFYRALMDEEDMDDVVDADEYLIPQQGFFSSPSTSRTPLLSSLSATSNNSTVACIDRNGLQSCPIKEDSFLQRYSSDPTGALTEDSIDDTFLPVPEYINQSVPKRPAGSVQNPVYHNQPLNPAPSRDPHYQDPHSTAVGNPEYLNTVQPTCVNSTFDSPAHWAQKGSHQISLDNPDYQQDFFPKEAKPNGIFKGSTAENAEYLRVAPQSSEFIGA

For orientation: pKi means the negative decadic logarithm of the Ki, by convention in mol/L. Consider `COc1ccc(CNc2ccnc3oc4ccccc4c23)cc1`, for which the pKi in assay [1] was 5.99.
As usually defined, the pIC50 is the negative decadic logarithm of the IC50, by convention in mol/L. Consider `Nc1ccc2oc3nccc(NCc4ccc(Br)cc4)c3c2c1`, for which the pIC50 in assay [2] and in assay [1] was less than 3.00 in each case.
Turning to `O=[N+]([O-])c1ccc2oc3nccc(NCc4ccc(Cl)cc4)c3c2c1`, the pKi in assay [2] is 5.60; in assay [1], 5.45.
Take `Nc1ccc2oc3nccc(NCc4cccc(Cl)c4)c3c2c1`: the pKi in assay [2] is 6.40; in assay [1] it was 5.34.
`Nc1cccc(CNc2ccnc3oc4ccc([N+](=O)[O-])cc4c23)c1`: the pKi in assay [2] was 5.44; in assay [1], 5.21.
Turning to `Nc1cccc(CNc2ccnc3oc4ccc(N)cc4c23)c1`, the values for the pKi in assay [2] and in assay [1] were 6.03 and 5.05, respectively.
Consider `O=[N+]([O-])c1ccc2[nH]c3nccc(NCc4cccc(Cl)c4)c3c2c1`, for which the values for the pKi in assay [2] and in assay [1] were 7.10 and 6.55, respectively. Besides, the inhibition of growth at 10 µM with Hs-578T was determined as 82%; in the assay on NCI-H460, 73%; with HOP-62 it was 89%; in the assay on BT-549, 30%.
As for `O=[N+]([O-])c1ccc2oc3nccc(NCc4cccc(Br)c4)c3c2c1`, the pKi in assay [2] was 6.17; in assay [1], 5.58.
`O=[N+]([O-])c1ccc2oc3nccc(NCc4ccc(Br)cc4)c3c2c1`: the results for the pKi in assay [2] and in assay [1] were 6.09 and 5.54, respectively.
For `Nc1ccc2oc3nccc(NCc4ccc(Cl)cc4)c3c2c1`, the negative logarithm of the IC50 (pIC50) in assay [2] and in assay [1] was less than 3.00 throughout.
`Nc1ccc2[nH]c3nccc(NCc4cccc(Cl)c4)c3c2c1`: the values for the pKi in assay [2] and in assay [1] were 6.85 and 5.72, respectively.
For `COc1cccc(CNc2ccnc3oc4ccc(N)cc4c23)c1`, the pKi in assay [2] was 6.77; in assay [1] it was 6.27. The inhibition of growth at 10 µM in the assay on Hs-578T is 16%; in the assay with NCI-H460, 29%; in the assay on HOP-62, 28%; with BT-549, 43%.
As for `O=[N+]([O-])c1cccc(CNc2ccnc3oc4ccc([N+](=O)[O-])cc4c23)c1`, the pKi in assay [2] is 6.03; in assay [1], 5.62.
`Nc1ccc2oc3nccc(NCc4cccc(Br)c4)c3c2c1`: the pKi in assay [2] was 6.64. Moreover, the inhibition of growth at 10 µM with Hs-578T was 16%; with NCI-H460, 23%; with HOP-62 it was 18%; in the assay on BT-549, 29%. Further, in assay [1], the pIC50 is less than 3.00.
Turning to `O=[N+]([O-])c1ccc2oc3nccc(NCc4cccc(Cl)c4)c3c2c1`, the figures for the pKi in assay [2] and in assay [1] were 5.87 and 5.55, respectively.
Regarding `O=[N+]([O-])c1ccc2[nH]c3nccc(NCc4cccc(Br)c4)c3c2c1`, the pKi in assay [2] was 6.96; in assay [1], 6.49.
As to `Nc1ccc2[nH]c3nccc(NCc4cccc(Br)c4)c3c2c1`, the pKi in assay [2] is 6.96; in assay [1], 5.68.
For `COc1ccc(CNc2ccnc3oc4ccc(N)cc4c23)cc1`, the pIC50 in assay [2] and in assay [1] was less than 3.00 in each case.
For `COc1cccc(CNc2ccnc3[nH]c4ccc([N+](=O)[O-])cc4c23)c1`, the figures for the pKi in assay [2] and in assay [1] were 6.48 and 6.05, respectively.
For the compound `COc1cccc(CNc2ccnc3oc4ccc([N+](=O)[O-])cc4c23)c1`, the pKi in assay [2] was 5.56; in assay [1], 5.34.
Turning to `COc1cccc(CNc2ccnc3[nH]c4ccc(N)cc4c23)c1`, the pKi is 6.49 in assay [2] and 5.45 in assay [1].
In the case of `COc1ccc(CNc2ccnc3oc4ccc([N+](=O)[O-])cc4c23)cc1`, the pKi in assay [2] is 5.69; in assay [1], 5.47.
